The values that follow come from patent US8273717B2, “Inhibitor for perioperative blood sugar elevation” (Otsuka Pharmaceutical Factory, Inc., priority 2003, dated 2012).

What all share (format): in vivo, rat
Experiment [1] relates to blood sugar level. Put plainly: Test Example 7: blood sugar decrease by oral administration of leucine, anesthesia vs non-anesthesia. The settings on record: 0.3 g/10 mL/kg leucine suspension orally. How it is done:
Non-anesthesia group: rats under overnight fasting conditions were divided into groups by body weight, and blood was collected from a tail vein (Pre Value). Shortly after that, 10 mL/kg of distilled water was orally administered to control group, and 0.3 g/10 mL/kg of leucine suspension to a sample solution group. Blood was collected from the tail vein 90 minutes after the administration of distilled water and the sample solution (90 minutes value).
Anesthesia group: rats under overnight fasting conditions were divided into groups by body weight, and blood was collected from a tail vein (Pre Value). After the blood collection, 10 mL/kg of distilled water was orally administered to a control group, and 0.3 g/10 mL/kg of leucine suspension to a sample solution group. Saflow indwelling needle was kept in the tail vein 30 minutes after the sample solution was administered. After that, anesthesia was introduced by rapid intravenous administration of 30 mg/kg Pentobarbital Sodium. Thereafter, a gastight syringe disposed in micro syringe pump and an indwelling needle were connected through an extension tube, and anesthesia was maintained by continuous intravenous administration of 30 mg/kg/hr. Blood was collected from the tail vein opposite to that wherein the indwelling needle was kept 60 minutes after introduction of anesthesia (90 minutes value).
In addition, blood was collected in a tube for hematocrit determination. After collected blood was centrifuged, plasma fraction was recovered and the blood sugar level was determined according to Test Example 1.
The changed value of the blood sugar level was calculated by deducting Pre value of each rat plasma from 90 minutes value of each rat plasma.

The test system of a further experiment is serum insulin value. Put plainly: Test Example 6: serum insulin value with glucose+leucine. As for the experimental part: The serum insulin value was determined by ELISA Method (manufactured by Mevcodia Co.).
(§1) Rats were pre-treated in a similar manner to Test Example 4, and anesthesia in the rats was maintained for 3 hours by intravenous continuous administration of Pentobarbital in a similar manner to Test Example 4. […] Blood was collected (100 μL) through the catheter for administration of aqueous amino acid solution before the start of administration, 30 minutes, 90 minutes, and 180 minutes after the start of administration respectively. And then, the blood sugar level and serum insulin value were determined according to Test Example 1.

For experiment [2], the system named is blood sugar level. Kind of experiment: Test Example 6: effect of branched amino acids in blood sugar elevation model by glucose (blood sugar level). The settings on record: Pentobarbital anesthesia; for time at which blood sugar level reached the maximum (peak): after the start of test, 5 weight % glucose-1.8% amino acid i.v. As for the experimental part:
A blood sugar elevation model was made by intravenous administration of glucose to the living body, and the effect was examined with parallel administration of leucine, isoleucine and valine in the above-mentioned model.
as §1

The test system of experiment [3] is blood sugar level. Put plainly: Test Example 8: inhibition of blood sugar elevation by oral isoleucine during sugar tolerance, non-anesthesia vs anesthesia. The note with it: 0.5 g/10 mL/kg isoleucine orally, 3 g glucose/kg orally 30 minutes later. As for the experimental part: Non-anesthesia group: rats under overnight fasting conditions were divided into groups by body weight, blood was collected from a tail vein (Pre Value). To a control group and a sample solution group was orally administered 0.5 g/10 mL/kg of OTSUKA distilled water (water for injection; manufactured by OTSUKA PHAMACEUTICAL FACTORY, INC.) and 0.5 g/10 mL/kg of aqueous isoleucine solution, respectively. 50% OTSUKA sugar solution (glucose injection (glucose 100 g/200 mL); manufactured by OTSUKA PHAMACEUTICAL FACTORY, INC.; hereinafter also simply called glucose solution) was administered orally so as to be 3 g glucose/kg 30 minutes after the administration of the sample solution. Blood was collected from the tail vein 30 minutes, 60 minutes, 90 minutes, and 120 minutes after the start of sugar solution administration, and the blood sugar level was determined. Each blood sugar level was considered as 30 minutes value, 60 minutes value, 90 minutes value, and 120 minutes value, respectively in the non-anesthesia group.
Anesthesia group: rats under overnight fasting conditions were divided into groups by body weight, blood was collected from a tail vein (Pre Value). […] The blood sugar level of the blood collected from the tail vein 30 minutes, 60 minutes, 90 minutes, and 120 minutes after the administration of sugar solution was determined. […]

As to `CC(C)C[C@H](N)C(=O)O` [leucine], the “decrease extent of blood sugar level in the anesthesia group compared to non-anesthesia group” value in the experiment with blood sugar level [1] was found to be 2.7 times. The “changed value of the blood sugar level (90 minutes value minus Pre value)” value with blood sugar level [1] (anesthesia group (Pentobarbital Sodium)) and with blood sugar level [1] (non-anesthesia group) was “decrease in blood sugar level was recognized” each time. Moreover, the “increase of serum insulin value under anesthesia relative to non-anesthesia” value amounted to 1.7 times in the experiment with serum insulin value (30 minutes), 9.9 times with serum insulin value (90 minutes) and 16.2 times in the experiment on serum insulin value (180 minutes). The “blood sugar level compared with glucose administration group” value with blood sugar level [2] (90 and 180 minutes after the start of the test) is listed as “lower significantly”. Further, the “time at which blood sugar level reached the maximum (peak)” value with blood sugar level [2] was 30 min.

`CC[C@H](C)[C@H](N)C(=O)O` [isoleucine]: the “time at which blood sugar level reached the maximum (peak)” value in the experiment on blood sugar level [2] worked out at 30 min. Further, the “area under the blood sugar level curve (AUC, 0-120 min) compared to control group” value is on record as “significant decrease” with blood sugar level [3] (anesthesia group (Somnopentyl i.p.)) and “decreased compared to that of the control group” in the experiment with blood sugar level [3] (non-anesthesia group).
